Consider three molecules from patent US20210205271A1 (The Johns Hopkins University, priority 2018, published 2021).

“And” between values parts separate entries of the source, which are not always exact repeats. Equal values may be shown once. Read-outs that look alike come from different tables or passages of the source.

For data set [1] the following is noted: rats; cited from earlier work.
The conditions of data set [2]: cited from earlier work.
The conditions of data set [3]: dog, in vivo, iv, 0.3 mg/kg.
Description: Using a co-solvent system comprising of 1% DMSO and 10% CremophorEL formulation, however, MBZ was successfully administered via IV at a dose of 1.5 mg/kg in mice (FIG. 3A) and a dose of 0.3 mg/kg in dog (FIG. 3B).
The nature of data set [4]: MBZ plasma exposure in male beagle dogs after oral administration. It counts as in vivo, dog. The conditions noted are these: PO […] MBZ equivalent.
For data set [5] the following is noted: mouse, in vivo, iv, 1.5 mg/kg. The procedure: (§1) All pharmacokinetic studies in mice were conducted according to protocols approved by the Animal Care and Use Committee at Johns Hopkins University. Male CD-1 mice between 25 and 30 g were obtained from Harlan, and maintained on a 12-h light-dark cycle with ad libitum access to food and water. […] The mice were sacrificed at specified time points post drug administration. For collection of plasma and brain tissue, animals were euthanized with CO2, and blood samples were collected in heparinized microtubes by cardiac puncture. Tissues were dissected and immediately flash frozen (−80° C.). Blood samples were spun at 2,000×g for 15 min, plasma was removed and stored at −80° C. until LC/MS analysis. Prior to extraction, frozen samples were thawed on ice. The calibration curves were developed using plasma and brain from naïve animals as a matrix. Plasma samples (50 μL), were processed using a single liquid extraction method by addition of 3004 of acetonitrile as with internal standard (losartan: 0.5 μM), followed by vortex mixing for 30 sec and then centrifugation at 10,000×g for 10 min at 4° C. For brain tissue, homogenized samples were vortex mixed and centrifuged as above. A 104 aliquot of supernatant was diluted with 35 µL of acetonitrile and mixed with 50 μL water containing 0.5 μM losartan as internal standard. Extracts were centrifuged at 10,000×g for 10 min at 4° C. Supernatants were transferred to 2504 polypropylene autosampler vials sealed with a Teflon cap. A volume of 34 was injected onto the ultra-performance liquid chromatography (UPLC) instrument for quantitative analysis by LC-MS/MS.

For data set [6] the following is noted: mouse, in vivo, po, 30 mg/kg. The procedure: Brain concentrations of MBZ were also measured in tandem.
as §1

As for `COC(=O)NC(=S)Nc1cc(C(=O)c2ccccc2)ccc1N` [4-amino-3-(3′-methoxycarbonyl-2′-thioureido)benzophonone], the “fold improvement in plasma exposure versus equimolar oral MBZ” value in data set [1] was 2 fold.
In general, bioavailability refers to the share of a dose that reaches the circulation, judged against a reference dose that is usually intravenous. Turning to `COC(=O)Nc1nc2ccc(C(=O)c3ccccc3)cc2[nH]1` [MBZ, Mebendazole], in data set [2] (pilot human study, one subject, intravenous and oral [3H]-mebendazole), the oral bioavailability is given as 17%. Besides, the bioavailability in data set [2] (second human study, five subjects) is 22% and 12-35%.
Broadly, the Vd is a proportionality between amount in the body and measured concentration, not a real space. Lower therefore signals little distribution into tissue. A word on the Cmax: it is the maximum level reached in the sampled fluid or tissue. By Tmax is commonly meant the time from dosing to the highest level. In the case of Mebendazole [MBZ-C], in data set [3], the AUC0-t came out at 0.9 µM·h and the Vd turned out to be 1.3 L/kg. In data set [4], the “% F (oral bioavailability of MBZ)” value stood at 11% and the “Tmax (MBZ, plasma)” value was 2 h. Moreover, in data set [5], the AUC0-t was 2.7 µM·h, the highest concentration (Cmax) was found to be 5.3 µM, the Tmax was found to be 4.98 min and the Vd came out at 1.4 L/kg. In data set [5], the “time of Cmax post-dose” value stood at 5 min. Besides, in data set [6], the “AUC0-t (MBZ, brain)” value turned out to be 13.1 ± 4.2 nmol·h/g and the “AUC0-t (MBZ, plasma)” value is 12.9 µM·h.
